Laboratory results taken from ChEMBL document CHEMBL1201862, “PubChem BioAssay data set” (2004).
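1) Cells in 96-well plates. 2) Compound, 48 h, 5 concentrations. 3) Linear interpolation between surrounding doses. 4) Unreached endpoint = highest concentration. At the GI50, growth is halved.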 Calls of active or inactive are those of the source. Rule as the data show it: active = GI50 up to about 1.1 µM and inactive = higher.

Tests used:
Experiment in all cases: inhibition of tumour cell growth, NCI panel, 48 h
[1] = system: NCI-H23
[2] = system: T47D
[3] = system: RXF 393
[4] = system: UACC-257
[5] = system: UACC-62
[6] = system: KM12
[7] = system: HCC 2998
[8] = system: LOX IMVI
[9] = system: SK-OV-3
[10] = system: BT-549
[11] = system: 786-0
[12] = system: Malme-3M
[13] = system: TK-10
[14] = system: HCT-116
[15] = system: MOLT-4
[16] = system: MDA-MB-231
[17] = system: M14
[18] = system: OVCAR-3
[19] = system: DU-145
[20] = system: PC-3
[21] = system: OVCAR-5
[22] = system: HCT-15
[23] = system: OVCAR-8
[24] = system: NCI-H522
[25] = system: A549
[26] = system: SK-MEL-28
[27] = system: MCF7
[28] = system: SR
[29] = system: CCRF-CEM
[30] = system: MDA-MB-435
[31] = system: SK-MEL-2
[32] = system: EKVX
[33] = system: IGROV-1
[34] = system: HOP-62
[35] = system: SN12C
[36] = system: HOP-92
[37] = system: Hs-578T
[38] = system: UO-31
[39] = system: COLO 205
[40] = system: SK-MEL-5
[41] = system: SW-620
[42] = system: SF-539
[43] = system: NCI-H460
[44] = system: U-251
[45] = system: MDA-N
[46] = system: ACHN
[47] = system: NCI/ADR-RES
[48] = system: K562
[49] = system: HL-60
[50] = system: HT-29
[51] = system: A498
[52] = system: NCI-H226
[53] = system: SF-268
[54] = system: RPMI-8226
[55] = system: SNB-75
[56] = system: SNB-19
[57] = system: OVCAR-4
[58] = system: CAKI-1
[59] = system: SF-295

SMILES: CCOC(=O)C(NC(=O)Nc1ccccc1)(Nc1cccc(Cl)c1)C(F)(F)F (configuration not stated)
- GI50 [1]: > 100 µM (inactive)
- GI50 [2]: > 100 µM (inactive)
- GI50 [3]: 20.7 µM (inactive)
- GI50 [4]: > 100 µM (inactive)
- GI50 [5]: > 100 µM (inactive)
- GI50 [6]: > 100 µM (inactive)
- GI50 [7]: > 100 µM (inactive)
- GI50 [8]: > 100 µM (inactive)
- GI50 [9]: > 100 µM (inactive)
- GI50 [10]: > 100 µM (inactive)
- GI50 [11]: > 100 µM (inactive)
- GI50 [12]: > 100 µM (inactive)
- GI50 [13]: > 100 µM (inactive)
- GI50 [14]: > 100 µM (inactive)
- GI50 [15]: 98.9 µM (inactive)
- GI50 [16]: > 100 µM (inactive)
- GI50 [17]: > 100 µM (inactive)
- GI50 [18]: > 100 µM (inactive)
- GI50 [19]: > 100 µM (inactive)
- GI50 [20]: > 100 µM (inactive)
- GI50 [21]: > 100 µM (inactive)
- GI50 [22]: > 100 µM
- GI50 [23]: > 100 µM (inactive)
- GI50 [24]: 92.9 µM (inactive)
- GI50 [25]: > 100 µM (inactive)
- GI50 [26]: > 100 µM (inactive)
- GI50 [27]: > 100 µM (inactive)
- GI50 [28]: > 100 µM (inactive)
- GI50 [29]: 45.1 µM (inactive)
- GI50 [30]: > 100 µM (inactive)
- GI50 [31]: > 100 µM (inactive)
- GI50 [32]: > 100 µM (inactive)
- GI50 [33]: > 100 µM (inactive)
- GI50 [34]: > 100 µM (inactive)
- GI50 [35]: > 100 µM (inactive)
- GI50 [36]: 39.8 µM (inactive)
- GI50 [37]: 24.3 µM (inactive)
- GI50 [38]: > 100 µM (inactive)
- GI50 [39]: > 100 µM (inactive)
- GI50 [40]: > 100 µM (inactive)
- GI50 [41]: > 100 µM (inactive)
- GI50 [42]: > 100 µM (inactive)
- GI50 [43]: > 100 µM (inactive)
- GI50 [44]: > 100 µM (inactive)
- GI50 [45]: > 100 µM (inactive)
- GI50 [46]: > 100 µM (inactive)
- GI50 [47]: > 100 µM (inactive)
- GI50 [48]: > 100 µM (inactive)
- GI50 [49]: 42 µM (inactive)
- GI50 [50]: > 100 µM (inactive)
- GI50 [51]: > 66.4 µM (inactive)
- GI50 [52]: > 100 µM (inactive)
- GI50 [53]: > 100 µM (inactive)
- GI50 [54]: > 100 µM (inactive)
- GI50 [55]: 46.7 µM (inactive)
- GI50 [56]: > 100 µM (inactive)

SMILES: CCOC(=O)C1=C(C)N(C)C(=S)NC1c1cccc(O)c1 (configuration not stated)
- GI50 [1]: 26.4 µM (inactive)
- GI50 [2]: 18.7 µM (inactive)
- GI50 [3]: 24.3 µM (inactive)
- GI50 [4]: 43.3 µM (inactive)
- GI50 [5]: 63.7 µM (inactive)
- GI50 [6]: 29 µM (inactive)
- GI50 [7]: 34 µM (inactive)
- GI50 [8]: 70.3 µM (inactive)
- GI50 [9]: 36.4 µM (inactive)
- GI50 [10]: 32.9 µM (inactive)
- GI50 [11]: 37.9 µM (inactive)
- GI50 [57]: 36.3 µM (inactive)
- GI50 [13]: > 100 µM (inactive)
- GI50 [14]: 25.6 µM (inactive)
- GI50 [15]: 37.8 µM (inactive)
- GI50 [16]: 46.6 µM (inactive)
- GI50 [17]: 29.4 µM (inactive)
- GI50 [18]: 36.1 µM (inactive)
- GI50 [19]: 57.3 µM (inactive)
- GI50 [58]: 56.6 µM (inactive)
- GI50 [20]: 38.5 µM (inactive)
- GI50 [21]: 64.1 µM (inactive)
- GI50 [22]: 30.3 µM
- GI50 [23]: 32.6 µM (inactive)
- GI50 [24]: 25.2 µM (inactive)
- GI50 [25]: 36.6 µM (inactive)
- GI50 [59]: 25.9 µM (inactive)
- GI50 [26]: 49.1 µM (inactive)
- GI50 [27]: 29.6 µM (inactive)
- GI50 [28]: 16.9 µM (inactive)
- GI50 [29]: 21.4 µM (inactive)
- GI50 [30]: 12.5 µM (inactive)
- GI50 [31]: 34.3 µM (inactive)
- GI50 [32]: 24.1 µM (inactive)
- GI50 [33]: 21.1 µM (inactive)
- GI50 [34]: 77.4 µM (inactive)
- GI50 [35]: 31.8 µM (inactive)
- GI50 [36]: 22.9 µM (inactive)
- GI50 [37]: 46.7 µM (inactive)
- GI50 [38]: 81.5 µM (inactive)
- GI50 [39]: 31.8 µM (inactive)
- GI50 [40]: 18.5 µM (inactive)
- GI50 [41]: 37.5 µM (inactive)
- GI50 [42]: 53.2 µM (inactive)
- GI50 [43]: 38.2 µM (inactive)
- GI50 [44]: 34.8 µM (inactive)
- GI50 [45]: 14.6 µM (inactive)
- GI50 [46]: 71 µM (inactive)
- GI50 [47]: 18.7 µM (inactive)
- GI50 [48]: 19.7 µM (inactive)
- GI50 [49]: 17.8 µM (inactive)
- GI50 [50]: 38.9 µM (inactive)
- GI50 [51]: 24.7 µM (inactive)
- GI50 [52]: 47.9 µM (inactive)
- GI50 [53]: 62.5 µM (inactive)
- GI50 [54]: 18.7 µM (inactive)
- GI50 [55]: 24.7 µM (inactive)
- GI50 [56]: 54.3 µM (inactive)

SMILES: O=C(CCC(=O)c1ccc(Cl)cc1)NO
- GI50 [1]: > 100 µM (inactive)
- GI50 [2]: > 100 µM (inactive)
- GI50 [3]: > 100 µM (inactive)
- GI50 [4]: > 100 µM (inactive)
- GI50 [5]: > 100 µM (inactive)
- GI50 [6]: > 100 µM (inactive)
- GI50 [7]: > 100 µM (inactive)
- GI50 [8]: > 100 µM (inactive)
- GI50 [9]: > 100 µM (inactive)
- GI50 [10]: > 100 µM (inactive)
- GI50 [11]: > 100 µM (inactive)
- GI50 [57]: > 100 µM (inactive)
- GI50 [13]: > 100 µM (inactive)
- GI50 [14]: > 100 µM (inactive)
- GI50 [15]: > 100 µM (inactive)
- GI50 [16]: > 100 µM (inactive)
- GI50 [17]: > 100 µM (inactive)
- GI50 [18]: > 100 µM (inactive)
- GI50 [19]: > 100 µM (inactive)
- GI50 [58]: > 100 µM (inactive)
- GI50 [20]: > 100 µM (inactive)
- GI50 [21]: > 100 µM (inactive)
- GI50 [22]: > 100 µM
- GI50 [23]: > 100 µM (inactive)
- GI50 [24]: > 100 µM (inactive)
- GI50 [25]: > 100 µM (inactive)
- GI50 [59]: > 100 µM (inactive)
- GI50 [26]: > 100 µM (inactive)
- GI50 [27]: > 100 µM (inactive)
- GI50 [28]: > 100 µM (inactive)
- GI50 [29]: > 100 µM (inactive)
- GI50 [30]: > 100 µM (inactive)
- GI50 [31]: > 100 µM (inactive)
- GI50 [32]: > 100 µM (inactive)
- GI50 [33]: > 100 µM (inactive)
- GI50 [34]: > 100 µM (inactive)
- GI50 [35]: > 100 µM (inactive)
- GI50 [36]: > 100 µM (inactive)
- GI50 [37]: > 100 µM (inactive)
- GI50 [38]: > 100 µM (inactive)
- GI50 [39]: > 100 µM (inactive)
- GI50 [40]: > 100 µM (inactive)
- GI50 [41]: > 100 µM (inactive)
- GI50 [42]: > 100 µM (inactive)
- GI50 [43]: > 100 µM (inactive)
- GI50 [44]: > 100 µM (inactive)
- GI50 [45]: > 100 µM (inactive)
- GI50 [46]: > 100 µM (inactive)
- GI50 [47]: > 100 µM (inactive)
- GI50 [48]: > 100 µM (inactive)
- GI50 [49]: > 100 µM (inactive)
- GI50 [50]: > 100 µM (inactive)
- GI50 [51]: > 100 µM (inactive)
- GI50 [52]: > 100 µM (inactive)
- GI50 [53]: > 100 µM (inactive)
- GI50 [54]: > 100 µM (inactive)
- GI50 [55]: > 100 µM (inactive)
- GI50 [56]: > 100 µM (inactive)
